Experimental findings from ChEMBL document CHEMBL5113492, “Design, synthesis, and biological evalution of bifunctional inhibitors against Hsp90-HDAC6 interplay” (Eur J Med Chem, 2022) are described below.

Active and inactive are the calls of the source. The rule behind the calls is not given here.

Data set [1] deals with NCI-H1975. Kind of data set: Antiproliferative activity against human NCI-H1975 cells assessed as growth inhibition incubated upto 72 hrs by CellTiter96 Aqueous One Solution Cell Proliferation assay. The format is functional.
The target in data set [2] is T1, Protein deacetylase HDAC6 (Homo sapiens) (UniProt Q9UBN7).
T1 sequence (whole entry): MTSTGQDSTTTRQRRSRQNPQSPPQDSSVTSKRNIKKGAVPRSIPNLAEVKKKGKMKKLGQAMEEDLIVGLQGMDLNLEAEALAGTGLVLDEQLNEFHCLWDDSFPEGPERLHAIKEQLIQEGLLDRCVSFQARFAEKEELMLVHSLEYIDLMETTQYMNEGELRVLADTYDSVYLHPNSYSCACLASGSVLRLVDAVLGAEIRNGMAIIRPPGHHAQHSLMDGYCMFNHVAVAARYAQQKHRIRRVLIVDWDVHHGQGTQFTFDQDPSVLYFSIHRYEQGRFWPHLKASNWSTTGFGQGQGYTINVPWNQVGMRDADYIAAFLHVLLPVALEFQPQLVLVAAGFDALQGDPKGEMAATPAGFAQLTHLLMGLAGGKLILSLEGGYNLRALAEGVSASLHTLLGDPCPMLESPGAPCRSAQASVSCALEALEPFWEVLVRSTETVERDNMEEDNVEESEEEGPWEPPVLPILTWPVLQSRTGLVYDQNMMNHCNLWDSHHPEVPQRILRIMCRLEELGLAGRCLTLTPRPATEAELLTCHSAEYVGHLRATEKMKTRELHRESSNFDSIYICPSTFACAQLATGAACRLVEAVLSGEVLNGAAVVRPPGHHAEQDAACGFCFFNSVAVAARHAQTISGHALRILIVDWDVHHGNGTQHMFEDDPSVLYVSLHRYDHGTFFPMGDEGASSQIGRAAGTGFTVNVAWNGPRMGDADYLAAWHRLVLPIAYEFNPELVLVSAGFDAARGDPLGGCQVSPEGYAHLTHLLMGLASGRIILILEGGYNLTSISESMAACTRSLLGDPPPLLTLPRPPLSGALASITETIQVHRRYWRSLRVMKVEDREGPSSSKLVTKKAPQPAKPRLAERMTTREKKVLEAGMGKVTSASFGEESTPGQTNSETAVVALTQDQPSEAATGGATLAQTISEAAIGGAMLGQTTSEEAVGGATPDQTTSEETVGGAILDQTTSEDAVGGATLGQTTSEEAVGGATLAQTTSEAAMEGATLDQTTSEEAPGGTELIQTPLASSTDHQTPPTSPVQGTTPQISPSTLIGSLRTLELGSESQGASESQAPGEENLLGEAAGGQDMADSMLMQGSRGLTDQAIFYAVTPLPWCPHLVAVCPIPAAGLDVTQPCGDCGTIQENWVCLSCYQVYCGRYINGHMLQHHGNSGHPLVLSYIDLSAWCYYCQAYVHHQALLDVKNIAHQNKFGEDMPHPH
Nature of the data set: Inhibition of HDAC6 in human NCI-H1975 cells assessed as increase in acetylation of alpha tubulin at 1 uM incubated for 24 hrs by western blot analysis. The format is cell-based.

For data set [3], the target named is Heat shock protein HSP90 (Homo sapiens) (UniProt P07900+P08238). Nature of the data set: Inhibition of HSP90 in human NCI-H1975 cells assessed as downregulation of CDK-4 expression at 2 uM incubated for 24 hrs by western blot analysis. The format is cell-based.
Data set [4] deals with T1, Protein deacetylase HDAC6 (Homo sapiens). Kind of data set: Inhibition of HDAC6 in human NCI-H1975 cells assessed as increase in acetylation of HSP90-Lys 294 residue at 2 uM incubated for 24 hrs by western blot analysis. The format is cell-based.
The subject of data set [5] is NCI-H1975. Nature of the data set: Induction of apoptosis in human NCI-H1975 cells assessed as early apoptotic cells at 2 uM incubated for 24 hrs by Annexin-V/propidium iodide staining based flow cytometry analysis. The format is functional.
Data set [6] relates to NCI-H1975. Kind of data set: Induction of apoptosis in human NCI-H1975 cells assessed as late apoptotic cells at 2 uM incubated for 24 hrs by Annexin-V/propidium iodide staining based flow cytometry analysis. The format is functional.
In data set [7] the test system is NCI-H1975. Kind of data set: Induction of apoptosis in human NCI-H1975 cells assessed as caspase-3 cleavage at 0.05 to 2 uM incubated for 24 hrs by western blot analysis. It counts as functional, cell-based. To be noted: dose 0.05-2 µM, DDE = dose-dependent effect.
Data set [8] deals with NCI-H1975. Kind of data set: Induction of apoptosis in human NCI-H1975 cells assessed as PARP cleavage at 0.05 to 2 uM incubated for 24 hrs by western blot analysis. The format is functional, cell-based. To be noted: dose 0.05-2 µM, DDE = dose-dependent effect.
The test system of data set [9] is NCI-H1975. Kind of data set: Antitumor activity against NSG mouse xenografted with human NCI-H1975 cells assessed as reduction on tumor growth at 50 mg/kg,ip measured after 2 weeks. The format is functional, organism-based.
In another data set the test system is Mus musculus. Kind of data set: In vivo inhibition of HDAC1 in human NCI-H1975 cells xenografted with NSG mouse assessed as increase in acetylation of Histone H3 at 50 mg/kg,ip measured after 6 weeks by immunohistochemistry analysis. The format is functional, organism-based.
The nature of data set [10]: Toxicity in NSG mouse xenografted with human NCI-H1975 cells assessed as histological abnormalities in ocular region at 25 mg/kg,ip measured after 6 weeks by H and E staining based assay. The format is organism-based. As to conditions: in vivo, 1008 h.
Data set [11] in a line: Toxicity in NSG mouse xenografted with human NCI-H1975 cells assessed as change in body weight at 25 mg/kg,ip measured after 6 weeks. It counts as organism-based. To be noted: in vivo, 1008 h.

For `CC(C)c1cc(C(=O)N(C)Cc2ccc(C(=O)NO)cc2)c(O)cc1O`, in the data set on NCI-H1975 [1], the concentration for 50% growth inhibition (GI50) was found to be 1700 nM. Also, the inhibition entry (in data set [2]; in data set [3]; in data set [4]; in the data set with Mus musculus) was “Active” throughout. In addition, the Activity is 16.78% in the data set on NCI-H1975 [5]; 9.01% with NCI-H1975 [6]; “Dde” in the data set on NCI-H1975 [7]; “Dde” in the data set on NCI-H1975 [8]; “Non-Toxic” in data set [10]; “Non-Toxic” in data set [11]. In the data set with NCI-H1975 [9], the outcome was Active.
